Reference: publication PMC7251097, “Aspartate/asparagine-β-hydroxylase: a high-throughput mass spectrometric assay for discovery of small molecule inhibitors” (Scientific Reports, 2020)
Counter-ions that a name gives are not always drawn. Like-named read-outs stand apart in the source and are kept apart here. Blank lines part the entries; values can stand above or below the compound they belong to.

Biological target: T1, His6-AspH315–758 (human aspartate/asparagine-β-hydroxylase, AspH) (Homo sapiens, UniProt Q12797)
T1 construct: N-Terminally His6-tagged human AspH315–758 (His6-AspH315–758) was produced in E. coli BL21 (DE3) cells; made in house; host or cells: E. coli BL21 (DE3), pET-28a(+) vector
T1 sequence (Q12797 315-758): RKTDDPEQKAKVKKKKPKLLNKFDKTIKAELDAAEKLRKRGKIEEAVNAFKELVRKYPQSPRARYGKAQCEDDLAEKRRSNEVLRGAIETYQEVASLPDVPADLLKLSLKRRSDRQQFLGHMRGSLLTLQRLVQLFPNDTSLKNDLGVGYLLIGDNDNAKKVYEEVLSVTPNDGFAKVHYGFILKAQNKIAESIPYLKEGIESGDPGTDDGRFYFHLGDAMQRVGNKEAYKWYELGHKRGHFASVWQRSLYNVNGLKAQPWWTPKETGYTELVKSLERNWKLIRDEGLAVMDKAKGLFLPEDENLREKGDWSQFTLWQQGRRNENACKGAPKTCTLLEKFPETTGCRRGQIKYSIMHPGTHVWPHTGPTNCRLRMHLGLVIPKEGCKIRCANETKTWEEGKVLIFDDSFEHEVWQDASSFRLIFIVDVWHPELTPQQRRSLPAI
Test: SPE-MS AspH inhibition assay (LOPAC screen at fixed 20 μM and IC50 dose-response), hydroxylation of cyclic peptide hFX-CP101–119
Format: biochemical
Conditions: for IC50: 50 nM His6-AspH315–758, 1.0 μM hFX-CP101–119, 3 μM 2OG, 2 μM Fe(II), 50 mM HEPES pH 7.5, 20 °C, mean ± SD, n = 2 (2,4-PDCA n = 10), read-out: IC50; for Plate 5 (% conversion): mean conversion DMSO 32.88

[1] = LOPAC compound at fixed 20 uM, plate 1, normalised to DMSO and 2,4-PDCA controls
[2] = LOPAC compound at fixed 20 uM, substrate conversion, plate 1
[3] = LOPAC compound at 20uM, plate 3, conversion of substrate peptide
[4] = LOPAC Plate 4, compound at 20 uM, substrate conversion
[5] = LOPAC compound at 20uM, plate 2, conversion of substrate peptide
[6] = LOPAC compound at 20uM, plate 2, normalised to DMSO and 2,4-PDCA controls
[7] = plate 5 (Pfitzer), test compounds at fixed 20 μM
[8] = LOPAC Plate 4, compound at 20 uM
[9] = LOPAC Plate 4, compound at 20 uM, read-out: % inhibition

Plate 1 (% inhibition) [1]: -35.30%
Plate 1 (% conversion) [2]: 47.73%
Compound: c1ccc(-c2cnn3cc(-c4ccc(OCCN5CCOCC5)cc4)cnc23)cc1 [DMH4]

Plate 3 (% conversion) [3]: 32.88%
Compound: N[C@@H](CCC(=O)N[C@@H](CSN=O)C(=O)NCC(=O)O)C(=O)O [S-Nitrosoglutathione]

% conversion [4]: 29.64%
Compound: N[C@H](CO)C(=O)O [D-Serine]

Plate 2 (% conversion) [5]: 38.29%
Plate 2 (% inhibition) [6]: -6.96%
Compound: O=C(O)CN(CCOCCOCCN(CC(=O)O)CC(=O)O)CC(=O)O [EGTA]

Plate 5 (% inhibition) [7]: 8.69%
Compound: Cc1cc(C)c(/C=C2\C(=O)Nc3ccc(Cl)cc32)[nH]1 [SU5614]

Plate 3 (% conversion) [3]: 36.56%
Compound: O=c1[nH]c2cc(C(F)(F)F)ccc2n1-c1cc(C(F)(F)F)ccc1O [NS-1619]

% inhibition [8]: 84.93%
% conversion [4]: 7.48%
Compound: Cc1nc(N=Nc2ccc(S(=O)(=O)O)cc2S(=O)(=O)O)c(COP(=O)(O)O)c(C=O)c1O [PPADS]

Plate 2 (% conversion) [5]: 62.82%
Plate 2 (% inhibition) [6]: -80.23%
Compound: CCCCCCCCCCCCCCC[C@H](O)[C@H](N)CO (racemic) [DL-erythro-Dihydrosphingosine]

% conversion [4]: 37.72%
inhibition at 20 µM [9]: -3.65%
Compound: COc1ccc(C2CNC(=O)C2)cc1OC1CCCC1 (centres unmarked) [Rolipram]

% inhibition [8]: -15.48%
% conversion [4]: 41.75%
Compound: COc1ccccc1CN[C@@H]1CCCN[C@@H]1c1ccccc1.Cl.Cl.O [CP-100263 dihydrochloride hydrate]

Plate 3 (% conversion) [3]: 39.38%
Compound: CC(C)NNC(=O)c1ccncc1.O=P(O)(O)O [Iproniazid phosphate]

Plate 3 (% conversion) [3]: 40.79%
Compound: N=C(NCCC[C@H](N)C(=O)O)N[N+](=O)[O-] [NG-Nitro-L-arginine]

Plate 1 (% inhibition) [1]: -6.36%
Plate 1 (% conversion) [2]: 38.01%
Compound: C[C@]12C[C@H](O)[C@H]3[C@@H](CCC4=CC(=O)CC[C@@]43C)[C@@H]1CC[C@@H]2C(=O)CO [Corticosterone]

% inhibition [8]: 0.24%
% conversion [4]: 36.39%
Compound: COc1cccc(NC(=O)/C=C/c2ccc(Cl)cc2)c1 [SB-366791]

IC50: 0.12 ± 0.01 µM
Compound: O=c1c2ccccc2[se]n1-c1ccccc1 [Ebselen, ebselen, reference compound]

% conversion [4]: 40.54%
inhibition at 20 µM [9]: -11.9%
Compound: C[C@H](O)C(=O)C1=Nc2c(nc(N)[nH]c2=O)NC1 [Sepiapterin]

Plate 5 (% inhibition) [7]: 9.86%
Plate 5 (% conversion) [7]: 32.96%
Compound: COc1cc(N)c(Cl)cc1C(=O)NC[C@@H]1CCN2CCC[C@@H]12 [SC-53116]

Plate 3 (% conversion) [3]: 37.75%
Compound: N=C(N)c1ccc(OCCCCCOc2ccc(C(=N)N)cc2)cc1 [Pentamidine isethionate]

Plate 1 (% inhibition) [1]: 23.98%
Plate 1 (% conversion) [2]: 27.82%
Compound: N[C@@H](C(=O)N[C@@H]1C(=O)N2C(C(=O)O)=C(Cl)CS[C@H]12)c1ccccc1 [Cefaclor]

% conversion [4]: 26.59%
Compound: Nc1ccc(S(=O)(=O)Nc2ccnn2-c2ccccc2)cc1 [Sulfaphenazole]

Plate 5 (% inhibition) [7]: 13.93%
Plate 5 (% conversion) [7]: 31.57%
Compound: CCOC(=O)N1c2ccc(C(F)(F)F)cc2[C@@H](N(Cc2cc(C(F)(F)F)cc(C(F)(F)F)c2)C(=O)OC)C[C@H]1CC [Torcetrapib]

% conversion [4]: 29.23%
Compound: O=c1c2ccccc2nc2n1CCc1c-2[nH]c2ccccc12 [Rutaecarpine]

Plate 3 (% conversion) [3]: 31.27%
Compound: Cc1ccc(Cl)c(Nc2ccccc2C(=O)O)c1Cl [Meclofenamic acid sodium]

% conversion [4]: 36.15%
inhibition at 20 µM [9]: 0.95%
Plate 5 (% inhibition) [7]: 18.88%
Plate 5 (% conversion) [7]: 29.89%
Compound: COc1ccc(C2(O)OC(=O)C(c3ccc4c(c3)OCO4)=C2Cc2cc(OC)c(OC)c(OC)c2)cc1 (centres unmarked) [PD-156707]

Plate 3 (% conversion) [3]: 33.56%
Compound: CCCCCN(CCCCC)C(=O)C(CCC(=O)O)NC(=O)c1ccc(Cl)c(Cl)c1 (centres unmarked) [Lorglumide sodium]

Plate 1 (% inhibition) [1]: 23.03%
Plate 1 (% conversion) [2]: 28.14%
Compound: CC1=C(C(=O)O)N2C(=O)[C@@H](NC(=O)[C@H](N)C3=CCC=CC3)[C@H]2SC1 [Cephradine]

Plate 1 (% inhibition) [1]: -3.19%
Plate 1 (% conversion) [2]: 36.94%
Compound: N[C@@H](CC(=O)O)C(=O)O [L-Aspartic acid]

The next lines start with the compound.

Compound: O=C(O)c1cc2cc(F)ccc2[nH]1 [5-Fluoroindole-2-carboxylic acid]
Plate 1 (% conversion): 31.84%
Plate 1 (% inhibition): 12.00%

Compound: CC(C)NCC(O)c1ccc(NS(C)(=O)=O)cc1.Cl (racemic) [(±)-Sotalol hydrochloride]
% inhibition [8]: -12.79%
% conversion [4]: 40.83%

Compound: N[C@H](C(=O)O)[C@H]1C[C@@H]1C(=O)O [(2S,1S,2S)-2-(carboxycyclopropyl)glycine]
Plate 2 (% conversion) [5]: 32.34%
Plate 2 (% inhibition) [6]: 10.80%

Compound: C=CC[N+](C)(C)c1ccc(CCC(=O)CCc2ccc([N+](C)(C)CC=C)cc2)cc1.[Br-].[Br-] [BW 284c51]
Plate 1 (% conversion): 38.38%
Plate 1 (% inhibition): -7.47%

Compound: NC(N)=NCCCCN=C(N)N [Arcaine sulfate]
Plate 1 (% inhibition) [1]: -5.14%
Plate 1 (% conversion) [2]: 37.60%

Compound: O=C(N/N=C/c1c(O)ccc2ccccc12)c1ccncc1 [AS-8351, reference compound]
IC50: 3.07 ± 0.43 µM

Compound: C[C@H]1C[C@H]2[C@@H]3CCC4=CC(=O)C=C[C@]4(C)[C@@]3(Cl)[C@@H](O)C[C@]2(C)[C@@]1(O)C(=O)CO [Beclomethasone]
Plate 1 (% inhibition) [1]: -10.42%
Plate 1 (% conversion) [2]: 39.37%

Compound: Br.CCCN(CCC)C1CCc2ccc(O)cc2C1 (racemic) [(±)-7-Hydroxy-DPAT hydrobromide]
Plate 2 (% conversion) [5]: 37.82%
Plate 2 (% inhibition) [6]: -5.57%

Compound: CCCCCCCC/C=C\CCCCCCCC(=O)NCc1ccc(O)c(OC)c1 [Olvanil]
Plate 3 (% conversion): 40.29%

Compound: CP-335963
% conversion: 27.86%
Plate 5 (% inhibition): -8.78%

Compound: OCCN1CCN(CCCN2c3ccccc3Sc3ccc(C(F)(F)F)cc32)CC1 [Fluphenazine dihydrochloride]
Plate 2 (% conversion): 63.32%
inhibition at 20 µM (LOPAC compound at 20uM, plate 2, normalised to DMSO and 2,4-PDCA controls, read-out: Plate 2 (% inhibition)): -81.7%

Compound: O=C(O)CCC(=O)O.c1ccc(C2(c3ccccc3)CC2C2=NCCN2)cc1 (centres unmarked) [Cibenzoline succinate]
Plate 3 (% conversion): 24.00%

Compound: CC(C)NCC(O)COc1cccc2ccccc12.Cl (racemic) [(±)-Propranolol hydrochloride]
Plate 3 (% conversion): 40.68%

Compound: S=C([S-])OC1CC2CC1C1CCCC21.[K+] [D-609 potassium]
% conversion: 29.00%

Compound: Nc1ncnc2c1c(-c1ccc(Oc3ccccc3)cc1)cn2C1CCCC1
Plate 2 (% conversion) [5]: 45.34%
Plate 2 (% inhibition) [6]: -28.02%

Compound: CCC(NC(C)C)C(O)c1ccc(O)c(O)c1.CS(=O)(=O)O (centres unmarked) [Isotharine mesylate]
Plate 3 (% conversion) [3]: 6.91%

Compound: Cc1ccc([N+](=O)[O-])cc1S(=O)(=O)N(C)C [BRL 50481]
Plate 1 (% conversion): 38.84%
Plate 1 (% inhibition): -8.84%

Compound: Cl.N=C(N)NN [Aminoguanidine hydrochloride]
Plate 1 (% inhibition) [1]: -12.95%
Plate 1 (% conversion) [2]: 40.22%

Compound: CC(C)(C)c1ccc(S(=O)(=O)/C=C/C#N)cc1 [Bay 11-7085]
Plate 1 (% conversion): 32.72%
Plate 1 (% inhibition): 9.38%

Compound: C[C@H](O)[C@H](O)[C@H]1CNc2nc(N)[nH]c(=O)c2N1.Cl
% conversion [4]: 25.86%

Compound: CC(=O)Oc1ccccc1C(=O)O [Acetylsalicylic acid]
Plate 1 (% inhibition) [1]: -0.51%
Plate 1 (% conversion) [2]: 36.04%

Compound: Cl.Cn1c(CCCC(=O)O)nc2cc(N(CCCl)CCCl)ccc21 [Bendamustine hydrochloride]
Plate 2 (% conversion): 39.38%
Plate 2 (% inhibition) (20 µM): -10.22%

Compound: CCCN(CCC)CCc1cccc2c1CC(=O)N2 [Ropinirole hydrochloride]
% conversion: 31.94%

Compound: C=CCN1CC[C@]23c4c5ccc(O)c4O[C@H]2C(=O)CC[C@@]3(O)[C@H]1C5 [Naloxone hydrochloride]
Plate 3 (% conversion): 40.30%

Compound: CC(C)(C=O)Cc1cc(C(C)(C)C)c(O)c(C(C)(C)C)c1 [CGP-13501]
Plate 1 (% inhibition) [1]: 0.58%
Plate 1 (% conversion) [2]: 35.68%

Compound: C[C@]12C=CC(=O)C=C1CC[C@@H]1C2=CC[C@]2(C)[C@@H](C(=O)CN3CCN(c4cc(N5CCCC5)nc(N5CCCC5)n4)CC3)CC[C@@H]12.O=C(O)/C=C\C(=O)O [U-74389G maleate]
% conversion: 25.11%
% inhibition [8]: 33.28%

Compound: O=C(O)CCCCCCCC(=O)O [Azelaic acid]
Plate 1 (% inhibition) [1]: 11.13%
Plate 1 (% conversion) [2]: 32.14%

Compound: C[N+]1(C)C2CCC1CC(OC(=O)c1c[nH]c3ccccc13)C2.[I-] (centres unmarked)
% conversion [4]: 36.85%

Compound: CC(C)C[C@H]1C(=O)N2CCC[C@H]2[C@]2(O)O[C@](NC(=O)[C@@H]3C=C4c5cccc6[nH]c(Br)c(c56)C[C@H]4N(C)C3)(C(C)C)C(=O)N12.CS(=O)(=O)O [(+)-Bromocriptine methanesulfonate]
Plate 1 (% conversion): 29.77%
Plate 1 (% inhibition): 18.18%
